Laboratory results published in patent publication US8664391B2, “Amide compounds as boosters of antivirals” (Janssen R&D Ireland Ltd, priority 2008, dated 2014).
Where two headings read alike, the source gives them in different places.

What was measured:
[1] = tested on: wild-type HIV-1 IIIB strain; assay: Antiviral activity in MT4 LTR-EGFP cellular assay; assay type: cell-based; details: Human immunodeficiency virus 1, 72 h; wild-type HIV-1 IIIB, MT4 LTR-EGFP cells, three days after infection; pEC50 = -log10(EC50); read-out: Antiviral Activity IIIB pEC50 (converted)
Protocol: (§1) Assay 1 &2: Antiviral Activity/Toxicity
The compounds of the present invention were tested for antiviral activity in a cellular assay, which was performed according to the following procedure.
The human T-cell line MT4 is engineered with Green Fluorescent Protein (GFP) and an HIV-specific promoter, HIV-1 long terminal repeat (LTR). This cell line is designated MT4 LTR-EGFP, and can be used for the in vitro evaluation of anti-HIV activity of investigational compounds. In HIV-1 infected cells, the Tat protein is produced which upregulates the LTR promotor and finally leads to stimulation of the GFP reporter production, allowing measuring ongoing HIV-infection fluorometrically.
(§2) The ratio of CC50 to EC50 is defined as the selectivity index (SI) and is an indication of the selectivity of the anti-HIV activity of the inhibitor. The ultimate monitoring of HIV-1 infection and cytotoxicity is done using a scanning microscope. Image analysis allows very sensitive detection of viral infection. Measurements are done before cell necrosis, which usually takes place about five days after infection, in particular measurements are performed three days after infection.
A pEC50 value corresponds to −log10(EC50). A pCC50 value corresponds to −log10(CC50).

[2] = Cytotoxicity in mock-infected MT4 CMV-EGFP cells; assay type: cell-based; details: human, pCC50 = -log10(CC50), read-out: Toxicity MT4 pCC50 (converted)
Text: as §1
Analogously, MT4 cells are engineered with GFP and the constitutional cytomegalovirus (CMV) promotor. This cell line is designated MT4 CMV-EGFP, and can be used for the in vitro evaluation of cytotoxicity of investigational compounds. In this cell line, GFP levels are comparably to those of infected MT4 LTR-EGFP cells. Cytotoxic investigational compounds reduce GFP levels of mock-infected MT4 CMV-EGFP cells.
as §2, with “Effective concentration values such as 50% effective concentration (EC50) can be determined and are usually expressed in μM. An EC50 value is defined as the concentration of test compound that reduces the fluorescence of HIV-infected cells by 50%. The 50% cytotoxic concentration (CC50 in μM) is defined as the concentration of test compound that reduces fluorescence of the mock-infected cells by 50%. The ratio” for “The ratio”
Table 2 lists pEC50 values against the wild-type HIV-1 IIIB strain as well as pCC50 values for a selected number of compounds of the invention. A pEC50 value corresponds to −log10(EC50). A pCC50 value corresponds to −log10(CC50).

[3] = in vitro; assay type: in vitro ADME, human; details: human, pH 7.4
Text: Assay 3: Metabolic Stability of Test Compounds (HLM15′)
Sub-cellular tissue preparations are made according to Gorrod et al. (Xenobiotica, 5, pp. 453-462 (1975)) by centrifugal separation after mechanical homogenization of tissue. Human liver tissue is rinsed in ice-cold 0.1 M Tris-HCl (pH 7.4) buffer to wash excess blood. Tissue is then blotted dry, weighed and chopped coarsely using surgical scissors. The tissue pieces are homogenized in 3 volumes of ice-cold 0.1 M phosphate buffer (pH 7.4) using either a Potter-S (Braun, Italy) equipped with a Teflon pestle or a Sorvall Omni-Mix homogenizer, for 7×10 sec. In both cases, the vessel is kept in/on ice during the homogenization process. Tissue homogenates are centrifuged at 9000×g for 20 min at 4° C. using a Sorvall centrifuge or Beckman Ultracentrifuge. The resulting supernatant can be stored at −80° C. and is designated ‘S9’. The S9 fraction is centrifuged at 100,000×g for 60 min at 4° C. using a Beckman ultracentrifuge. The resulting supernatant is carefully aspirated, aliquoted and designated ‘cytosol’. The pellet is re-suspended in 0.1 M phosphate buffer (pH 7.4) in a final volume of 1 ml per 0.5 g original tissue weight and designated ‘microsomes’. All sub-cellular fractions are aliquoted, immediately frozen in liquid nitrogen and stored at −80° C. until use.
Heat-inactivated (10 min at 95° C.) ‘S9’ or microsomes were used for blank experiments. Reaction mixtures were incubated at 37° C. for 5 min, after which the reaction was started by the addition of 0.8 mM β-NADP. The reaction was incubated for 0 or 15 min. Next, the reaction was stopped by addition of 2 volumes of DMSO (or acetonitrile). Samples were centrifuged (10 min, 900×g) and analyzed by LC-MS.

[4] = molecular target: T1, CYP3A4 (Homo sapiens, UniProt P08684); assay: CYP450 inhibition, fluorescent substrate assay, CYP3A4; assay type: biochemical; details: 10 μM test compound; for inhibition at 10 min, 10 μM: E. coli expressed CYP3A4, pH 7.4, probe DBF (1 μM), substrate DBF 1 μM, read-out: 3A4-DBF % inh.
T1 construct: host or cells: E. coli
Protocol: (§3) Assay 4: CYP450 Inhibition […] This fluorescent molecule was measured using a fluorescent plate reader (Victor2 (Wallac) or Fluoroskan (Labsystems)). Compounds inhibiting the enzymatic reaction will result in a decrease of fluorescent signal. CYP P450 enzymes were prepared in house or commercially bought and stored at −80° C. [table] The assay was performed in black 96 well Costar plates. Test compounds were added to a CYP P450 enzyme solution in the presence of an NADPH generating system. After 5 min of preincubation at 37° C., the freshly prepared, phosphate buffered (pH 7.4) substrate solution was added. Known CYP P450 inhibitors were used as positive controls, negative controls were run without CYP P450 enzyme. For final reaction mixture concentrations, see Table 6. […] Then, the reaction was stopped by the addition of 200 μl acetonitrile, and the fluorescent signal was detected. [table] […] Inhibition of TMC114 Metabolisation

[5] = molecular target: CYP2C9 (Homo sapiens, UniProt P11712); assay: CYP450 inhibition, fluorescent substrate assay, CYP2C9; assay type: biochemical; details: pH 7.4
Protocol: as §3

[6] = molecular target: T2, CYP2D6 (Homo sapiens, UniProt P10635); assay: CYP450 inhibition, fluorescent substrate assay, CYP2D6; assay type: biochemical; details: E. coli expressed CYP2D6, pH 7.4, probe AMMC (3 μM), 10 μM test compound, substrate AMMC 3 μM, read-out: 2D6-AMMC % inh.
T2 construct: host or cells: E. coli
Protocol: as §3

[7] = molecular target: T3, CYP1A2 (Homo sapiens, UniProt P05177); assay: CYP450 inhibition, fluorescent substrate assay, CYP1A2; assay type: biochemical; details: E. coli expressed CYP1A2, pH 7.4, probe CEC (5 μM), 10 μM test compound, substrate CEC 5 μM, read-out: 1A2-CEC % inh.
T3 construct: host or cells: E. coli
T3 sequence (P05177 1-516): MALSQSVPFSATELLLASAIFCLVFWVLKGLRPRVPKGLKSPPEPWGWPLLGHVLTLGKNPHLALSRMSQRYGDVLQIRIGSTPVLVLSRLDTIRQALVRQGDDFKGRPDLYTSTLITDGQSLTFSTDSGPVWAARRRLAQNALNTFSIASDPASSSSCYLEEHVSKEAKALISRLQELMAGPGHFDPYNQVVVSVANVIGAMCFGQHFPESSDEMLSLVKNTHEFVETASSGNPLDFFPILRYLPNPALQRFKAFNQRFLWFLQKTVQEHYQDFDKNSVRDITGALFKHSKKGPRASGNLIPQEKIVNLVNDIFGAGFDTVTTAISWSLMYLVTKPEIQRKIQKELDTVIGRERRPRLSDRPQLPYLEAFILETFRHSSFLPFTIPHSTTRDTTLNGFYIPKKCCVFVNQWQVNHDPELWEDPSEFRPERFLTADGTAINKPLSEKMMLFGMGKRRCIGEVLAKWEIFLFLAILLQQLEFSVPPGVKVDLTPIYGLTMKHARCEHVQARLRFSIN
Protocol: as §3

[8] = molecular target: T4, CYP2C19 (Homo sapiens, UniProt P33261); assay: CYP450 inhibition, fluorescent substrate assay, CYP2C19; assay type: biochemical; details: E. coli expressed CYP2C19, pH 7.4, probe CEC (25 μM), 10 μM test compound, substrate CEC 25 μM, read-out: 2C19-CEC % inh.
T4 construct: host or cells: E. coli
Protocol: as §3

[9] = E. coli expressed CYP3A4, pH 7.4, probe BFC (150 μM), substrate BFC 150 μM, read-out: 3A4-BFC % inh.
[10] = E. coli expressed CYP3A4, pH 7.4, probe BQ (60 μM), substrate BQ 60 μM, read-out: 3A4-BQ % inh.

T4 sequence (P33261 whole entry): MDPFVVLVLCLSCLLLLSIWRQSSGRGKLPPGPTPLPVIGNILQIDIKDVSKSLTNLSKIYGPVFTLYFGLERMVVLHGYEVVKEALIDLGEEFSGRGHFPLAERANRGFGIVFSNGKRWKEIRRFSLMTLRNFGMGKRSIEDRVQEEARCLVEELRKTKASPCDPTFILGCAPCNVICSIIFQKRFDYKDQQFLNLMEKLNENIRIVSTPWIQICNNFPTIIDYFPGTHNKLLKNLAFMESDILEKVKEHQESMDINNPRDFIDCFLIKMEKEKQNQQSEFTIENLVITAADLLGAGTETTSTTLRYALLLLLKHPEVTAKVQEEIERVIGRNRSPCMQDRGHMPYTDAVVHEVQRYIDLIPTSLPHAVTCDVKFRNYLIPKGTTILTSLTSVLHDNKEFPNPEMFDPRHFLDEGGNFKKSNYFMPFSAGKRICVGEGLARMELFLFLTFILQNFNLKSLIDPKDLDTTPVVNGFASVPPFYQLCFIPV
CYP2C9, sequence (P11712 whole entry): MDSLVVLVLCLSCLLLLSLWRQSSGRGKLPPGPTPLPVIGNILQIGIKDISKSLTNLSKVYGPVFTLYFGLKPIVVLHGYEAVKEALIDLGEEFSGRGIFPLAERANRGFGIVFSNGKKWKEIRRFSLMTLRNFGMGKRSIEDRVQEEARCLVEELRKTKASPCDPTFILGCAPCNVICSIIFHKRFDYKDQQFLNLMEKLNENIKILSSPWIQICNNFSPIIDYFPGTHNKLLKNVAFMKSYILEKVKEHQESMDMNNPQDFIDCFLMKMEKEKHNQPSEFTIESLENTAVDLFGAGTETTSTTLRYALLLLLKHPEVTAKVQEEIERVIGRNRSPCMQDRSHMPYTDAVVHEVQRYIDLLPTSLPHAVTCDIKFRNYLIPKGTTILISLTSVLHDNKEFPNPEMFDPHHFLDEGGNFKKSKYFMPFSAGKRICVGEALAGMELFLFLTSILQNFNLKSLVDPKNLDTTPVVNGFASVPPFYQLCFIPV
T1 sequence (P08684 whole entry): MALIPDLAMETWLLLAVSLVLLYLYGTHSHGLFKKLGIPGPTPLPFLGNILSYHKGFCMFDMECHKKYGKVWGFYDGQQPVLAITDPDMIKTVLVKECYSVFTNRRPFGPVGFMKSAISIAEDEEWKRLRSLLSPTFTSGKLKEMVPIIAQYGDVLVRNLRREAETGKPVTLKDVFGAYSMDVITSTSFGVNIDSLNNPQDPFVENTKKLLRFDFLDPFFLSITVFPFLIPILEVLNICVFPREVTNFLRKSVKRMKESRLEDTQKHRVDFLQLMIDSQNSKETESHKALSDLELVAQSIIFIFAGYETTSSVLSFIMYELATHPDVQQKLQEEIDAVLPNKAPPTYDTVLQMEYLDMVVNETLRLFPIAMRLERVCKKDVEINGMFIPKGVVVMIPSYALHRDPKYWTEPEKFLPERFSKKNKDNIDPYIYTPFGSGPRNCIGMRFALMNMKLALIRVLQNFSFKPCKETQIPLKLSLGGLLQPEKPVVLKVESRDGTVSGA
T2 sequence (P10635 whole entry): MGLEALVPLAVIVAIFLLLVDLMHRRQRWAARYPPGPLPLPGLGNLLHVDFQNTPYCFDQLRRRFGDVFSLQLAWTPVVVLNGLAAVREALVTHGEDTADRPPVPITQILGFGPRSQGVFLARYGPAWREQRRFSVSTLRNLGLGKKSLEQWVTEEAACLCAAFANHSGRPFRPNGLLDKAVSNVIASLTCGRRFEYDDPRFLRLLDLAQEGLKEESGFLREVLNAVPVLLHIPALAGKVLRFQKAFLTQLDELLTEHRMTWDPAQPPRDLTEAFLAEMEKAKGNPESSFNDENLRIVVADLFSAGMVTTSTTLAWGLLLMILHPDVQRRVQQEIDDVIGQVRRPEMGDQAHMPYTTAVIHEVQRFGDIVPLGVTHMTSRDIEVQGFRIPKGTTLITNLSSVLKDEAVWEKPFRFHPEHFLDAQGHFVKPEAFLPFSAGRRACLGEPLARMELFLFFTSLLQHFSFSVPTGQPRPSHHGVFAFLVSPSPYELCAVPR

Row | SMILES | EC50 [1] [µM] | CC50 at 3 days [2] [µM] | recovery at 15 min, 5 μM [3] [%] | inhibition at 30 min, 10 μM [4, 9] [%] | inhibition at 30 min, 10 μM [4, 10] [%] | inhibition at 10 min, 10 μM [4] [%] | inhibition at 30 min, 10 μM [5] [%] | inhibition at 45 min, 10 μM [6] [%] | inhibition at 15 min, 10 μM [7] [%] | inhibition at 30 min, 10 μM [8] [%]
1 | CC(C)CN(C[C@@H](O)[C@H](Cc1ccccc1)NC(=O)OCc1cncs1)C(=O)c1cnc2ccccc2n1 [Compound C12, 1S-2R-{1-Benzyl-2-hydroxy-3-[isobutyl-(quinoxaline-2-carbonyl)-amino]-propyl}-carbamic acid thiazol-5-ylmethyl ester] | 60.3 | 61.7 | 67 | 70 | 79 | 93 | 92 | 0 | 21 | 81
2 | CC(C)CN(C[C@@H](O)[C@H](Cc1ccccc1)NC(=O)OCc1cncs1)C(=O)c1cccnc1 [Compound C13] | > 100 | > 100 | 69 | 81 | 84 | 94 | 95 | 64 | 8 | 67
3 | CC(C)CN(C[C@@H](O)[C@H](Cc1ccccc1)NC(=O)OCc1cncs1)C(=O)c1ccc[nH]1 [Compound C14] | 79.4 | 89.1 | 24 | 84 | 80 | 91 | 98 | 67 | 56 | 87
4 | CC(C)CN(C[C@@H](O)[C@H](Cc1ccccc1)NC(=O)OCc1cncs1)C(=O)c1cccc(Cl)c1 [Compound C15] | 50.1 | 42.7 | 57 | 75 | 80 | 92 | 97 | 41 | 51 | 92
5 | CC(C)CN(C[C@@H](O)[C@H](Cc1ccccc1)NC(=O)OCc1cncs1)C(=O)c1ccc(Cl)cc1 [Compound C16] | 38.9 | 40.7 | 59 | 71 | 82 | 92 | 97 | 43 | 50 | 90
